This note sets out measurements from patent US20130324576A1, “THERAPEUTIC COMPOUNDS” (Takeda Pharmaceutical Company Limited, priority 2012, published 2013).

In general, pIC50 refers to the IC50 on a negative log10 scale, so that one unit is a factor of ten.

pIC50: −log10 of the molar value.

This assay deals with T1, human PKR1 receptors (Homo sapiens, UniProt Q8TCW9).
T1 construct: expressed in transfected cells; host or cells: RBL2H3 cells (rat basophilic leukaemia line) expressing human PKR1
T1 sequence (Q8TCW9 whole entry): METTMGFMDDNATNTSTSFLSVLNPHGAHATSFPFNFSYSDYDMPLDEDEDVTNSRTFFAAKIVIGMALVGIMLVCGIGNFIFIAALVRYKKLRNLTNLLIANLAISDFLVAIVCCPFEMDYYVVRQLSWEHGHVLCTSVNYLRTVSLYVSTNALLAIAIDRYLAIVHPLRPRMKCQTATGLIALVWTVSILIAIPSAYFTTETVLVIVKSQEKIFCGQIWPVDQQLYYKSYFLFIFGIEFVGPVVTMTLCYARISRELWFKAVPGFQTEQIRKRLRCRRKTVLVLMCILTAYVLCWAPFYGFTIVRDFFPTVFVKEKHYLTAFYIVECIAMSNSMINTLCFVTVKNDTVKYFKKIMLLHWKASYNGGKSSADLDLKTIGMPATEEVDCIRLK
Nature of the assay: PKR1 antagonist assay: block of PK1-mediated intracellular calcium release (FLIPR Tetra, Calcium 5 dye). Conditions: RBL2H3 cells expressing human PKR1; 10 min pre-incubation, stimulation with PK1 at EC80; calcium fluorescence. In kind it is cell-based. How it is done: Prokineticin receptor 1 (PKR1) antagonists may be functionally assessed by measurement of change in intracellular calcium levels induced by Gq mediated increase in inositol triphosphate (IP3) levels. The ability of a compound to block the intracellular release of calcium mediated by PK1 in RBL2H3 cells expressing human PKR1 receptors is determined as a measure of the compound's antagonist activity in vitro.
Approximately 10,000 cells per assay well are seeded in normal culture medium in a 384 well plate (Corning). Twenty-four hours after seeding, the cells are loaded with a calcium sensitive fluorescent dye by replacing the culture medium with assay buffer (1× Hanks buffered saline, 25 mM HEPES, 0.1% w/v fatty acid free BSA (bovine serum albumin), pH 7.4) containing 1 mM probenecid and 1× Calcium 5 Reagent (Molecular Devices). Cells are incubated at 37° C. for 1 hour to allow for dye uptake.
To test for antagonist activity, test compounds at a final concentration range between 0.32 nM-10 μM (diluted in assay buffer) are added to the assay wells and allowed to incubate for 10 minutes prior to stimulation with PK1. After incubation with test compounds the assay plate is placed in a FLIPR Tetra (Molecular Devices) and PK1 (diluted in assay buffer) is added at the determined EC80 concentration (final). Ligand-dependent changes in intracellular calcium levels are determined by measuring changes in fluorescence of the dye at […] following excitation at 485 nm.
Regarding `Cc1n[nH]c(C)c1S(=O)(=O)N1CCC(O)(Cc2ccc(Cl)cc2)CC1` [Example 108, 4-(4-Chlorobenzyl)-1-((3,5-dimethyl-1H-pyrazol-4-yl)sulfonyl)piperidin-4-ol], the pIC50 was 5.79. Next, `Cc1n[nH]c(C)c1S(=O)(=O)N1CCC(C(F)c2ccc(Cl)cc2)CC1` (single isomer, unassigned) [Example 107, 4-((4-Chlorophenyl)fluoromethyl)-1-((3,5-dimethyl-1H-pyrazol-4-yl)sulfonyl)piperidine]: 6.51; `Cc1nn(C)c(C)c1S(=O)(=O)N1CCC(Oc2ccc(Cl)cc2)CC1` [Example 5, 4-(4-Chlorophenoxy)-1-[(1,3,5-trimethyl-1H-pyrazol-4-yl)sulfonyl]piperidine]: 6.28. Next, `Cc1n[nH]c(C)c1S(=O)(=O)N1CCC(C(F)c2ccc(Cl)cc2)CC1` (single isomer, unassigned) [Example 106, 4-((4-Chlorophenyl)fluoromethyl)-1-((3,5-dimethyl-1H-pyrazol-4-yl)sulfonyl)piperidine]: 5.40; `Cc1n[nH]c(C)c1S(=O)(=O)N1CCC(O)(Cc2ccc(Cl)cc2F)CC1` [Example 75, 4-(4-Chloro-2-fluorobenzyl)-1-((3,5-dimethyl-1H-pyrazol-4-yl)sulfonyl)piperidin-4-ol]: 5.16. On to `Cc1nn(C)c(C)c1S(=O)(=O)N1CCC(Oc2ccc(Cl)cc2C(F)(F)F)CC1` [Example 39, 4-[4-Chloro-2-(trifluoromethyl)phenoxy]-1-(trimethyl-1H-pyrazole-4-sulfonyl)piperidine], for which the pIC50 was 6.68. In the case of `Cc1nn(C)c(C)c1S(=O)(=O)N1CCC(Oc2ccc(Cl)cn2)CC1` [Example 48, 5-Chloro-2-((1-((1,3,5-trimethyl-1H-pyrazol-4-yl)sulfonyl)piperidin-4-yl)oxy)pyridine], the negative-log IC50 (pIC50) is 5.42. Consider `Cc1n[nH]c(C)c1S(=O)(=O)N1CCC(C#N)(Cc2ccc(Cl)cc2Cl)CC1` [Example 65, 4-(2,4-Dichlorobenzyl)-1-((3,5-dimethyl-1H-pyrazol-4-yl)sulfonyl)piperidine-4-carbonitrile], for which the pIC50 was 6.03. For the compound `Cc1n[nH]c(C)c1S(=O)(=O)N1CCC(Oc2ccc(Cl)cc2Cl)CC1` [Example 22, 4-(2,4-Dichlorophenoxy)-1-[(3,5-dimethyl-1H-pyrazol-4-yl)sulfonyl]piperidine], the pIC50 is 5.93. Regarding `COc1ccc(OC2CCN(S(=O)(=O)c3c(C)n[nH]c3C)CC2)cc1F` [Example 41, 1-(3,5-Dimethyl-1H-pyrazole-4-sulfonyl)-4-(3-fluoro-4-methoxyphenoxy)piperidine], the pIC50 was 5.23.

For the compound `CCOC(=O)C1(Cc2ccc(Cl)cc2)CCN(S(=O)(=O)c2c(C)nn(C)c2C)CC1` [Example 61, Ethyl 4-(4-chlorobenzyl)-1-((1,3,5-trimethyl-1H-pyrazol-4-yl)sulfonyl)piperidine-4-carboxylate], the pIC50 was 5.97. With `CCOC(=O)C1(Cc2ccc(Br)cc2)CCN(S(=O)(=O)c2c(C)nn(C)c2C)CC1` [Example 63, Ethyl 4-(4-bromobenzyl)-1-((1,3,5-trimethyl-1H-pyrazol-4-yl)sulfonyl)piperidine-4-carboxylate], the pIC50 was 6.19.

`COc1cc(Cl)ccc1CC1(O)CCN(S(=O)(=O)c2c(C)nn(C)c2C)CC1` [Example 88, 4-(4-Chloro-2-methoxybenzyl)-1-((1,3,5-trimethyl-1H-pyrazol-4-yl)sulfonyl)piperidin-4-ol]: the pIC50 was 6.70. On to `Cc1nn(C)c(C)c1S(=O)(=O)N1CCC(C(=O)c2ccc(Cl)c(Cl)c2)CC1` [Example 50, (3,4-Dichlorophenyl)(1-((1,3,5-trimethyl-1H-pyrazol-4-yl)sulfonyl)piperidin-4-yl)methanone], for which the pIC50 is 5.68. On to `Cc1n[nH]c(C)c1S(=O)(=O)N1CCC(C(C)(O)c2ccc(Cl)cc2)CC1` (centres unmarked) [Example 101, 1-(4-Chlorophenyl)-1-(1-((3,5-dimethyl-1H-pyrazol-4-yl)sulfonyl)piperidin-4-yl)ethanol], for which the negative logarithm of the IC50 (pIC50) was 5.62.

For the compound `Cc1n[nH]c(C)c1S(=O)(=O)N1CCC(Oc2ccc3ccccc3c2)CC1` [Example 33, 1-[(3,5-Dimethyl-1H-pyrazol-4-yl)sulfonyl]-4-(naphthalen-2-yloxy)piperidine], the negative-log IC50 (pIC50) was 6.36. In the case of `Cc1nn(C)c(C)c1S(=O)(=O)N1CCC(Oc2ccc3ccccc3c2)CC1` [Example 23, 4-(Naphthalen-2-yloxy)-1-[(1,3,5-trimethyl-1H-pyrazol-4-yl)sulfonyl]piperidine], the pIC50 was 6.66. Consider `Cc1nn(C)c(C)c1S(=O)(=O)N1CCC(O)(Cc2ccc(Cl)cc2)CC1` [Example 57, 4-(4-Chlorobenzyl)-1-((1,3,5-trimethyl-1H-pyrazol-4-yl)sulfonyl)piperidin-4-ol], for which the pIC50 is 5.80. As for `Cc1nn(C)c(C)c1S(=O)(=O)N1CCC(Oc2ccc(Cl)cc2)C(C)C1` (centres unmarked) [Example 21, 4-(4-Chlorophenoxy)-3-methyl-1-[(1,3,5-trimethyl-1H-pyrazol-4-yl)sulfonyl]piperidine], the pIC50 was 5.68. As to `COC(c1ccc(Cl)cc1)C1CCN(S(=O)(=O)c2c(C)n[nH]c2C)CC1` (centres unmarked) [Example 96, 4-((4-Chlorophenyl)(methoxy)methyl)-1-((3,5-dimethyl-1H-pyrazol-4-yl)sulfonyl)piperidine], the pIC50 is 7.10. `Cc1n[nH]c(C)c1S(=O)(=O)N1CCC(Oc2ccc(Cl)c(Cl)c2)CC1` [Example 2, 4-(3,4-Dichlorophenoxy)-1-[(3,5-dimethyl-1H-pyrazol-4-yl)sulfonyl]piperidine]: the negative logarithm of the IC50 (pIC50) was 6.00. Take `Cc1n[nH]c(C)c1S(=O)(=O)N1CCC(C(C#N)c2ccc(Cl)cc2)CC1` (centres unmarked) [Example 93, 2-(4-Chlorophenyl)-2-(1-((3,5-dimethyl-1H-pyrazol-4-yl)sulfonyl)piperidin-4-yl)acetonitrile]: the pIC50 is 6.21. With `COc1cc(Cl)ccc1CC1CCN(S(=O)(=O)c2c(C)nn(C)c2C)CC1` [Example 79, 4-(4-Chloro-2-methoxybenzyl)-1-((1,3,5-trimethyl-1H-pyrazol-4-yl)sulfonyl)piperidine], the pIC50 was 7.30.

In the case of `Cc1nn(C)c(Cl)c1S(=O)(=O)N1CCC(Oc2ccc(Cl)cc2)CC1` [Example 15, 1-[(5-Chloro-1,3-dimethyl-1H-pyrazol-4-yl)sulfonyl]-4-(4-chlorophenoxy)piperidine], the pIC50 is 5.54. `Cc1nn(C)c(C)c1S(=O)(=O)N1CCC(Cc2ccc(Cl)c(F)c2)CC1` [Example 72, 4-(4-Chloro-3-fluorobenzyl)-1-((1,3,5-trimethyl-1H-pyrazol-4-yl)sulfonyl)piperidine]: the pIC50 was 6.36. As for `Cc1nn(C)c(C)c1S(=O)(=O)N1CCC(Oc2ccc(OC(F)(F)F)cc2)CC1` [Example 3, 4-[4-(Trifluoromethoxy)phenoxy]-1-[(1,3,5-trimethyl-1H-pyrazol-4-yl)sulfonyl]piperidine], the pIC50 is 5.85. On to `Cc1n[nH]c(C)c1S(=O)(=O)N1CCC(C(F)c2ccc(Cl)cc2)CC1` (centres unmarked) [Example 105, 4-((4-Chlorophenyl)fluoromethyl)-1-((3,5-dimethyl-1H-pyrazol-4-yl)sulfonyl)piperidine], for which the pIC50 was 6.39.

As to `Cc1nn(C(F)F)c(C)c1S(=O)(=O)N1CCC(Oc2ccc(Cl)cc2Cl)CC1` [Example 29], the pIC50 is 5.96.

With `Cc1ccc(OC2CCN(S(=O)(=O)c3c(C)nn(C)c3C)CC2)cc1` [Example 4, 4-(4-Methylphenoxy)-1-[(1,3,5-trimethyl-1H-pyrazol-4-yl)sulfonyl]piperidine], the pIC50 was 6.09. For the compound `Cc1nn(C)c(C)c1S(=O)(=O)N1CCC(Oc2ccc(C#N)cc2)CC1` [Example 7, 4-({1-[(1,3,5-Trimethyl-1H-pyrazol-4-yl)sulfonyl]piperidin-4-yl}oxy)benzonitrile], the pIC50 was 5.14. For the compound `Cc1n[nH]c(C)c1S(=O)(=O)N1CCC(Oc2ccc(Cl)c(F)c2)CC1` [Example 47, 4-(4-Chloro-3-fluorophenoxy)-1-(3,5-dimethyl-1H-pyrazole-4-sulfonyl)piperidine], the pIC50 is 5.72. On to `Cc1cnn(C)c1S(=O)(=O)N1CCC(Oc2ccc(Cl)cc2Cl)CC1` [Example 36, 4-(2,4-Dichlorophenoxy)-1-(1,4-dimethyl-1H-pyrazole-5-sulfonyl)piperidine], for which the pIC50 is 5.96. As for `Cc1nn(C)c(C)c1S(=O)(=O)N1CCC(C(O)c2ccc(Cl)cc2)CC1` (centres unmarked) [Example 95, (4-Chlorophenyl)(1-((1,3,5-trimethyl-1H-pyrazol-4-yl)sulfonyl)piperidin-4-yl)methanol], the pIC50 was 6.15.

Regarding `Cc1nn(C)c(C)c1S(=O)(=O)N1CCC(Oc2c(F)cc(Cl)cc2F)CC1` [Example 46, 4-(4-Chloro-2,6-difluorophenoxy)-1-(trimethyl-1H-pyrazole-4-sulfonyl)piperidine], the pIC50 was 6.00. In the case of `Cc1nn(C)cc1S(=O)(=O)N1CCC(Oc2ccc(Cl)cc2Cl)CC1` [Example 27, 4-(2,4-Dichlorophenoxy)-1-[(1,3-dimethyl-1H-pyrazol-4-yl)sulfonyl]piperidine] it was 5.25.
